Assay results: patent US10471118B2, “Retinylamine derivitives for treatment of ocular disorders” (CASE WESTERN RESERVE UNIVERSITY, priority 2014, dated 2019)

Legend:
[1] = test system: ARPE19 cells; experiment: ARPE19 cell uptake; format: cell-based, human; settings: 10 μM, 16 h, compared with Ret-NH2
Protocol: The ARPE19 cells (human RPE cells purchased from American Type Culture Collection) were plated in 6-well plates using Dulbecco's Modified Eagle Medium (DMEM) and allowed to grow to 90% confluency. The cells were then incubated with DMEM containing 10 μM derivatives for 16 hours under dark room conditions. Control group was cell without drug. Medium was removed and cells were washed three times by PBS after 16 h of incubation. Cells were then collected. Samples were treated with 400 μl of methanol, homogenized at 37° C. for 1 h, followed by a centrifugation. The 100 μl of the supernatant was analyzed by reverse phase HPLC. Reverse-phase HPLC (analytical C18 reverse column; 5 μm; 250 mm×4.6 mm; flow rate of 1.0 mL/min; 60:40 acetonitrile:H2O (v:v) with 0.05% trifluoroacetic acid; detection at 325 nm) was utilized to determine retinylamine or its derivative in […].

[2] = Pharmacokinetics of PEG-GFL-NH-Ret in C57BL mice (N-retinylamides in liver and eye); format: in vivo; settings: 1 mg equivalent Ret-NH2 per mouse oral, especially first 8 h after gavage
Protocol: Female C57BL mice (4-week-old) were randomly divided into two dosing groups. One group of mice was gavaged with one dose of Ret-NH2 (1 mg per mouse, dissolved in DMSO), and the other group of mice was also gavaged once with PEG-GFL-NH-Ret (17.5 mg per mouse, equivalent to 1 mg Ret-NH2 per mouse). Then at each predetermined time point (0, 4 h, 8 h, 24 h, 48 h and 72 h after drug administration), 6 mice were sacrificed. The liver and eye balls were collected to determine tissue N-retinylamide content for pharmacokinetic analysis. A portion of the liver tissue (ca. 0.5 g) was weighed, homogenized in 2 mL 1:1 ethanol:PBS solution and the eye balls were similarly processed. N-Retinylamides were extracted in 4 mL hexane, concentrated, and reconstituted to a 300 μL volume. Normal-phase HPLC (Agilent-Zorbax SIL; 5 μm; 4.5×250 mm; flow rate of 1.4 mL/min; 80:20 hexane:ethyl acetate (v:v); detection at 325 nm) was utilized to determine N-retinylamide concentration in these tissues.

[3] = test system: Abca4^−/−Rdh8^−/− mice; experiment: Preventing light-induced retinal degeneration with PEG-GFL-NH-Ret in Abca4-/-Rdh8-/- mice; format: in vivo, mouse
Protocol: Abca4^−/−Rdh8^−/− mice (male and female, 4-week-old, 4-5 mice in each treatment group) were kept in the dark for 48 h before each experiment. Then free Ret-NH2 (0.5 mg, 1.75 μmol) per mouse) or conjugate PEG-GFL-NH-Ret (8.75 mg per mouse, equivalent to 0.5 mg free Ret-NH2 per mouse) was administered by gastric gavage. Mice were illuminated with 10,000 lux light for 30 min at 1 day, 3 days or 6 days after their gavage, and then kept in the dark for 7 days when final retinal evaluations were performed. […] Dark-adapted mice were anesthetized by the same protocol used for OCT recordings. All experimental procedures were performed under a safety light. A contact lens electrode was placed on the eye, and a reference electrode and ground electrode were placed underneath the skin between the two ears and in the tail, respectively. ERGs were recorded with the universal electrophysiologic system UTAS E-3000 (LKC Technologies, Inc., Gaithersburg, Md.). Light intensity calibrated by the manufacturer was computer-controlled. Mice were placed in a Ganzfeld dome, and scotopic responses to flash stimuli were obtained from both eyes simultaneously.

[4] = Storage stability of PEG-GFL-NH-Ret conjugate in solid form; format: physicochemical; settings: room temperature, same condition
From the text: The number and weight-average molecular weights of polymer conjugate was 21 and 22 kDa (Mw/Mn=1.05), as determined by size exclusion chromatography. […] The structure of PEG-GFL-NHRet was preserved during the storage in solid form more than 6 months at room temperature, while free Ret-NH2 decomposed in less than 1 week under the same condition.

With `CC1=C(/C=C/C(C)=C/C=C/C(C)=C/CNC(=O)[C@@H](N)Cc2ccccc2)C(C)(C)CCC1` [RF, (S)-2-amino-N-((2E,4E,6E,8E)-3,7-dimethyl-9-(2,6,6-trimethylcyclohex-1-en-1-yl)nona-2,4,6,8-tetraen-1-yl)-3-phenylpropanamide] the “uptake in ARPE19 cells” value [1] was “higher uptake in ARPE19 cells than Ret-NH2”.

With `CC1=C(/C=C/C(C)=C/C=C/C(C)=C/CN)C(C)(C)CCC1` [Ret-NH2, (2E,4E,6E,8E)-3,7-dimethyl-9-(2,6,6-trimethylcyclohex-1-en-1-yl)nona-2,4,6,8-tetraen-1-amine] the “liver concentrations of N-retinylamides” value [2] was “much higher liver concentrations of N-retinylamides than those treated with the conjugate”, the “protection against light-induced retinal degeneration by OCT” value (shortened to “protection”) ([3]; 0.5 mg Ret-NH2 equivalent per mouse gavaged 1 day before light exposure) was “effective protection against light-induced retinal degeneration” and the “protection” value ([3]; 0.5 mg Ret-NH2 equivalent per mouse gavaged 3 days before light exposure) was “did not maintain such protection”. The “protection” value ([3]; 0.5 mg Ret-NH2 equivalent per mouse gavaged 6 days before light exposure) was “No protective effect”, the “ONL thickness from OCT images” value ([3]; gavaged 1 day before light exposure) was “thickness comparable to that of mice without light illumination” and the ERG responses ([3]; gavaged 3 days before strong light exposure) was “significant loss of ERG activity”. For the same compound, the “ONL thickness from OCT images” value ([3]; gavaged 3 days before strong light illumination) was “significantly reduced” and the “time to decomposition on storage” value [4] was “less than 1 week”.

For `CC1=C(/C=C/C(C)=C/C=C/C(C)=C/CNC(=O)[C@@H](NC(=O)CN)C(C)C)C(C)(C)CCC1` [RVG, (S)-2-(2-aminoacetamido)-N-((2E,4E,6E,8E)-3,7-dimethyl-9-(2,6,6-trimethylcyclohex-1-en-1-yl)nona-2,4,6,8-tetraen-1-yl)-3-methylbutanamide], the “uptake in ARPE19 cells” value [1] was “higher uptake in ARPE19 cells than Ret-NH2”.
